For 3 molecules, Activity and inhibition results are on record in ChEMBL document CHEMBL3124782, “MHY884, a newly synthesized tyrosinase inhibitor, suppresses UVB-induced activation of NF-κB signaling pathway through the downregulation of oxidative stress” (Bioorg Med Chem Lett, 2014).

The nature of assay [1]: Antioxidant activity assessed as peroxynitrite scavenging activity at 1 to 10 uM by DHR 123 assay. Type of assay: functional.
Assay [2] relates to Mus musculus. The assay is described as follows: Antioxidant activity in UVB-irradiated melanin-possessing hairless mouse assessed as inhibition of NF-kappaB-mediated iNOS expression in skin homogenate at 2 to 10 uM treated topically to dorsal skin once a day for 21 days concomitantly irradiated with UV-B on alternate days from day 2 post-treatment by Western blot method. Type of assay: functional, organism-based. In general terms: Immunoblotting shows a protein as a band on a membrane.

Assay [3] relates to Mus musculus. Kind of assay: Antioxidant activity in UVB-irradiated melanin-possessing hairless mouse assessed as inhibition of p65 NF-kappaB phosphorylation at Ser536 residue in skin homogenate at 2 to 10 uM treated topically to dorsal skin once a day for 21 days concomitantly irradiated with UV-B on alternate days from day 2 post-treatment by Western blot method. Type of assay: functional, organism-based.

Assay [4] concerns Mus musculus. The assay is described as follows: Antioxidant activity in UVB-irradiated melanin-possessing hairless mouse assessed as inhibition of AKT-mediated IKKalphabeta phosphorylation at Ser176/180 residues in skin homogenate at 2 to 10 uM treated topically to dorsal skin once a day for 21 days concomitantly irradiated with UV-B on alternate days from day 2 post-treatment by Western blot method. Type of assay: functional, organism-based.

Assay [5] concerns Mus musculus. Kind of assay: Antioxidant activity in UVB-irradiated melanin-possessing hairless mouse assessed as inhibition of AKT phosphorylation at Thr 308 and Ser473 residues in skin homogenate at 2 to 10 uM treated topically to dorsal skin once a day for 21 days concomitantly irradiated with UV-B on alternate days from day 2 post-treatment by Western blot method. The format is functional, organism-based.

Assay [6] deals with Mus musculus. Kind of assay: Antioxidant activity in UVB-irradiated melanin-possessing hairless mouse assessed as effect on GSH/GSSG ratio in skin homogenate at 2 to 10 uM treated topically to dorsal skin once a day for 21 days concomitantly irradiated with UV-B on alternate days from day 2 post-treatment by o-phthalaldehyde assay. The format is functional, organism-based.
The subject of assay [7] is B16-F10. The assay is described as follows: Inhibition of oxidative stress in mouse B16F10 cells assessed as SIN-1-induced peroxynitrite generation pretreated for 2 hrs followed by washout before SIN-1 challenge. Type of assay: functional, cell-based.
For assay [8], the system named is Mus musculus. The assay is described as follows: Antioxidant activity in UVB-irradiated melanin-possessing hairless mouse assessed as inhibition of NF-kappaB-mediated COX-2 expression in skin homogenate at 2 to 10 uM treated topically to dorsal skin once a day for 21 days concomitantly irradiated with UV-B on alternate days from day 2 post-treatment by Western blot method. Type of assay: functional, organism-based.

Assay [9] relates to Mus musculus. The assay is described as follows: Antioxidant activity in UVB-irradiated melanin-possessing hairless mouse assessed as inhibition of nuclear translocation of p-p65 NF-kappaB Ser 536 in skin homogenate at 2 to 10 uM treated topically to dorsal skin once a day for 21 days concomitantly irradiated with UV-B on alternate days from day 2 post-treatment by Western blot method. The format is functional, organism-based.

The nature of assay [10]: Antioxidant activity assessed as ROS scavenging activity at 1 to 10 uM by DCFDA assay. Type of assay: functional.
Assay [11] relates to B16-F10. Kind of assay: Inhibition of oxidative stress in mouse B16F10 cells assessed as SIN-1-induced ROS generation pretreated for 2 hrs followed by washout before SIN-1 challenge. Type of assay: functional, cell-based.
The test system of assay [12] is Mus musculus. The assay is described as follows: Antioxidant activity in melanin-possessing hairless mouse assessed as inhibition of UVB-induced ROS generation in skin homogenate compound treated topically to dorsal skin once a day for 21 days concomitantly irradiated with UV-B on alternate days from day 2 post-treatment by DCFDA assay. Type of assay: functional, organism-based.

Assay [13] relates to Mus musculus. The assay is described as follows: Antioxidant activity in melanin-possessing hairless mouse assessed as inhibition of UVB-induced peroxynitrite generation in skin homogenate compound treated topically to dorsal skin once a day for 21 days concomitantly irradiated with UV-B on alternate days from day 2 post-treatment by DHR 123 assay. The format is functional, organism-based.

Activity calls are given as the source filed them. No cut-off for these calls is given here.

As to `CC(C)(S)[C@@H](N)C(=O)O`, the result in assay [1] was Active.

Consider `COc1cc(C2Nc3cc(Cl)ccc3S2)cc(OC)c1O` (stereo not given), for which the inhibition entry with Mus musculus [2], in the assay with Mus musculus [3], in the assay on Mus musculus [4], in the assay on Mus musculus [5], with Mus musculus [8] and in the assay on Mus musculus [9] was “Active” in each case. The result in the assay with Mus musculus [6] was inactive. Also, the inhibition entry in the assay on B16-F10 [7], in the assay with B16-F10 [11], with Mus musculus [12] and with Mus musculus [13] was “Dose-dependent effect” throughout. Moreover, the outcome in [1] and in [10] was Active.

Regarding `Cc1c(C)c2c(c(C)c1O)CCC(C)(C(=O)O)O2` (stereo not given), the result in assay [10] was Active.
